Measurements taken from the NIST ThermoML archive (doi:10.1016/j.jct.2005.04.018).

Conditions: Liquid; for speed of sound: Linear variable-path acoustic interferometer; for mass density: Vibrating tube method

CCCC[n+]1ccn(C)c1.O=S(=O)([N-]S(=O)(=O)C(F)(F)F)C(F)(F)F
Conditions | mass density [kg/m3] | speed of sound [m/s]
313.15 K, 10010 kPa | – | 1228.7
313.15 K, 12380 kPa | 1431.97 | –
313.15 K, 14840 kPa | 1433.7 | –
313.15 K, 17300 kPa | 1435.41 | –
313.15 K, 19760 kPa | 1437.1 | –
313.15 K, 19960 kPa | – | 1261.1
313.15 K, 22210 kPa | 1438.8 | –
313.15 K, 24670 kPa | 1440.5 | –
313.15 K, 27130 kPa | 1442.16 | –
313.15 K, 29590 kPa | 1443.8 | –
313.15 K, 32050 kPa | 1445.44 | –
313.15 K, 34510 kPa | 1447.05 | –
313.15 K, 36970 kPa | 1448.67 | –
313.15 K, 39430 kPa | 1450.26 | –
313.15 K, 41880 kPa | 1451.88 | –
313.15 K, 44340 kPa | 1453.41 | –
313.15 K, 46800 kPa | 1455.01 | –
313.15 K, 49260 kPa | 1456.51 | –
313.15 K, 51720 kPa | 1458.07 | –
313.15 K, 54180 kPa | 1459.64 | –
313.15 K, 56640 kPa | 1461.15 | –
313.15 K, 59100 kPa | 1462.71 | –
313.15 K, 59730 kPa | – | 1373.5
313.15 K, 98970 kPa | – | 1466.4
313.15 K, 150890 kPa | – | 1573.2
318.14 K, 100 kPa | 1418.06 | –
318.14 K, 5000 kPa | 1421.63 | –
318.14 K, 7460 kPa | 1423.41 | –
318.14 K, 9920 kPa | 1425.23 | –
318.14 K, 12380 kPa | 1427 | –
318.14 K, 14840 kPa | 1428.76 | –
318.14 K, 17300 kPa | 1430.5 | –
318.14 K, 19760 kPa | 1432.21 | –
318.14 K, 22210 kPa | 1433.93 | –
318.14 K, 24670 kPa | 1435.62 | –
318.14 K, 27130 kPa | 1437.31 | –
318.14 K, 29590 kPa | 1439.01 | –
318.14 K, 32050 kPa | 1440.66 | –
318.14 K, 34510 kPa | 1442.31 | –
318.14 K, 36970 kPa | 1443.93 | –
318.14 K, 39430 kPa | 1445.59 | –
318.14 K, 41880 kPa | 1447.2 | –
318.14 K, 44340 kPa | 1448.84 | –
318.14 K, 46800 kPa | 1450.43 | –
318.14 K, 49260 kPa | 1452.03 | –
318.14 K, 51720 kPa | 1453.64 | –
318.14 K, 54180 kPa | 1455.23 | –
318.14 K, 56640 kPa | 1456.83 | –
318.14 K, 59100 kPa | 1458.39 | –
323.14 K, 100 kPa | 1413.69 | –
323.14 K, 5000 kPa | 1417.31 | –
323.14 K, 7460 kPa | 1419.14 | –
323.14 K, 9920 kPa | 1420.97 | –
323.14 K, 12380 kPa | 1422.8 | –
323.14 K, 14840 kPa | 1424.57 | –
323.14 K, 17300 kPa | 1426.35 | –
323.14 K, 19760 kPa | 1428.11 | –
323.14 K, 22210 kPa | 1429.82 | –
323.14 K, 24670 kPa | 1431.56 | –
323.14 K, 27130 kPa | 1433.26 | –
323.14 K, 29590 kPa | 1434.96 | –
323.14 K, 32050 kPa | 1436.63 | –
323.14 K, 34510 kPa | 1438.32 | –
323.14 K, 36970 kPa | 1439.98 | –
323.14 K, 39430 kPa | 1441.63 | –
323.14 K, 41880 kPa | 1443.28 | –
323.14 K, 44340 kPa | 1444.91 | –
323.14 K, 46800 kPa | 1446.54 | –
323.14 K, 49260 kPa | 1448.18 | –
323.14 K, 51720 kPa | 1449.79 | –
323.14 K, 54180 kPa | 1451.4 | –
323.14 K, 56640 kPa | 1453.01 | –
323.14 K, 59100 kPa | 1454.62 | –
323.15 K, 100 kPa | – | 1172.6
323.15 K, 5050 kPa | – | 1190.2
323.15 K, 10030 kPa | – | 1207.8
323.15 K, 19940 kPa | – | 1241
323.15 K, 59810 kPa | – | 1355.9
323.15 K, 99220 kPa | – | 1450.8
323.15 K, 150840 kPa | – | 1557.4
328.2 K, 100 kPa | 1408.32 | –
328.2 K, 5000 kPa | 1412.04 | –
328.2 K, 7460 kPa | 1413.97 | –
328.2 K, 9920 kPa | 1415.75 | –
328.2 K, 12380 kPa | 1417.61 | –
328.2 K, 14840 kPa | 1419.44 | –
328.2 K, 17300 kPa | 1421.25 | –
328.2 K, 19760 kPa | 1423.05 | –
328.2 K, 22210 kPa | 1424.84 | –
328.2 K, 24670 kPa | 1426.58 | –
328.2 K, 27130 kPa | 1428.34 | –
328.2 K, 29590 kPa | 1430.04 | –
328.2 K, 32050 kPa | 1431.76 | –
328.2 K, 34510 kPa | 1433.46 | –
328.2 K, 36970 kPa | 1435.15 | –
328.2 K, 39430 kPa | 1436.83 | –
328.2 K, 41880 kPa | 1438.52 | –
328.2 K, 44340 kPa | 1440.15 | –
328.2 K, 46800 kPa | 1441.79 | –
328.2 K, 49260 kPa | 1443.46 | –
328.2 K, 51720 kPa | 1445.11 | –
328.2 K, 54180 kPa | 1446.72 | –
328.2 K, 56640 kPa | 1448.35 | –
328.2 K, 59100 kPa | 1449.96 | –
